Source: patent US20250228801A1, “USE OF Galectin-1 INHIBITOR IN PREPARATION OF DRUG FOR TREATING PULMONARY FIBROSIS” (Institute of Basic Medical Sciences, CAMS, priority 2024, published 2025)

Key:
Galectin-1 = Galectin-1 levels in silicosis mice (qPCR of lung tissue, ELISA of BALF); format: in vivo, mouse
Source text: (§1) Male C57BL/6J mice (aged 8 weeks and weighing 25-30 g) were selected and housed in an SPF grade laboratory animal room, and the model of silicosis was constructed by one-time intratracheal instillation of silica (Si); the mice were divided into four groups (n=9): • 1) PBS+vehicle group: tracheal infusion of PBS, intraperitoneal injection of vehicle (10% DMSO+90% corn oil) 2 weeks later, once every other day for 3 weeks; • 2) PBS+OTX008 group: PBS was given by tracheal infusion, and 2 weeks later, OTX008 (5 mg/kg) was given by intraperitoneal injection, once every other day for 3 weeks; • 3) Si+vehicle group: Silica suspension (300 mg/mL, 40 μL) was given tracheal infusion, and vehicle (10% DMSO+90% corn oil) was given intraperitoneal injection 2 weeks later, once every other day for 3 weeks; and • 4) Si+OTX008 group: Silica suspension (300 mg/mL, 40 μL) was given tracheal infusion, and OTX008 (5 mg/kg) was given intraperitoneal injection 2 weeks later, once every other day for 3 weeks.
(§2) All mice were sacrificed after the administration, and the corresponding samples were collected for detection.
(§3) Concentrations of inflammatory factors IL-1β and IL-6 as well as Galectin-1 in mouse BALF were detected by using ELISA kits.
(§4) Lung tissue RNA of all mice was extracted; cDNA was obtained by using a reverse transcription kit (KR103, Tiangen Biotechnology, Beijing, China); qPCR was conducted by using a SYBR Green I Q-PCR Kit (TransGen Biotech, Beijing China); data collection and analysis were conducted by Bio-Rad IQ5 system.

silicosis mice [1] = experiment: Pulmonary function test in silicosis mouse model; format: in vivo; conditions: OTX008 5 mg/kg i.p.
Source text: as §1
Anesthetized mice were fixed on an experimental table, and mouse lung function was detected by a pulmonary function testing system (DSI Buxco, USA). Before experiment, the mouse was anesthetized by intraperitoneal injection of 0.4 mL/100 g 2% pentobarbital, tracheotomy was performed, a trachea cannula was inserted, and a ventilator was connected. Next, FRC, PV, FV, and RC were automatically tested by a PET system. Indicators closely related to lung function changes in silicosis for statistical analysis, including lung volume indicators such as IC, and pulmonary ventilation function tests such as RI, Cdyn, and Cchord.

[2] = system: inflammatory factors IL-1β and IL-6; experiment: Inflammatory factors in silicosis mice (qPCR of lung tissue, ELISA of BALF); format: in vivo, mouse; conditions: OTX008 5 mg/kg i.p.
Source text: as §1, §2, §3, §4

[3] = system: fibrosis factors Fn-1 and Col-I, hydroxyproline; experiment: Fibrosis factors (qPCR) and HYP content in lung tissue of silicosis mice; format: in vivo, mouse; conditions: OTX008 5 mg/kg i.p.
Source text: as §1, §2, §4
30 mg of mouse lung tissue was detected using an HYP kit (NBP2-59747, Novus Biologicals, Littleton, CO, USA).

silicosis mice [4] = experiment: Pathological staining (HE, Masson) of lung tissue of silicosis mice; format: in vivo, mouse; conditions: OTX008 5 mg/kg i.p.
Source text: as §1
The left lung was fixed in 4% paraformaldehyde for 72 h, dehydrated, paraffin-embedded, sectioned (to 5 μm), and subjected to HE staining and Masson staining, respectively. The HE staining was conducted to calculate the inflammation score based on Szapiel's score. The scoring method included no inflammation (grade 0), mild (grade 1), moderate (grade 2), and severe (grade 3); Masson staining was conducted to evaluate the degree of fibrosis based on the King score. Specifically, different silicosis nodules were evaluated for fibrosis degree according to King's method, with levels ranging from 0 to 5. Each silicosis nodule was assigned a corresponding fibrosis damage score, which was calculated as the fibrosis level score (0-5) multiplied by its percentage of the total area of the tissue section. The sections were scanned, photographed and counted by a 3D HISTECH digital slide scanner.

CN(C)CCNC(=O)COc1c2cccc1Cc1cccc(c1OCC(=O)NCCN(C)C)Cc1cccc(c1OCC(=O)NCCN(C)C)Cc1cccc(c1OCC(=O)NCCN(C)C)C2 [OTX008]
Galectin-1 translation level in alveolar lavage fluid (Galectin-1; OTX008 5 mg/kg i.p., ELISA): decreased
Lgals1 transcription level in lung tissue (Galectin-1; OTX008 5 mg/kg i.p., qPCR): decreased
levels of Galectin-1 (transcription and translation) (Galectin-1; OTX008 5 mg/kg intraperitoneal, once every other day for 3 weeks): effectively inhibited
lung function: inspiratory capacity (IC) (silicosis mice [1]; FIG. 3A): improved significantly
lung function: inspiratory resistance (RI) (silicosis mice [1]; FIG. 3B): improved significantly
lung function: dynamic compliance (Cdyn) (silicosis mice [1]; FIG. 3C): improved significantly
lung function: quasi-static compliance (Cchord) (silicosis mice [1]; FIG. 3D): improved significantly
concentration of IL-1β in alveolar lavage fluid ([2]; ELISA, FIG. 4C): decreased
concentration of IL-6 in alveolar lavage fluid ([2]; ELISA, FIG. 4D): decreased
transcription level of Il-1β in lung tissue ([2]; qPCR, FIG. 4A): decreased
transcription level of Il-6 in lung tissue ([2]; qPCR, FIG. 4B): decreased
collagen-specific amino acid HYP in lung tissue ([3]; HYP kit, FIG. 6C): decreased
transcription level of Col-I in lung tissue ([3]; qPCR, FIG. 6A): decreased
transcription level of Fn-1 in lung tissue ([3]; qPCR, FIG. 6B): decreased
progression of pulmonary fibrosis (silicosis mice [4]): effectively alleviate
fibrosis lesions (Masson staining) (silicosis mice [4]; FIGS. 7A-7D): reduced
inflammatory infiltration in the lungs (silicosis mice [4]; HE staining): reduced
degree of the disease (lesions) (silicosis mice [4]; Masson staining): alleviated
